{"source": "PubChem BioAssay AID256", "about": "(DTP/NCI, 2004)", "tested_on": "CD2F1 mice, L1210 leukemia ip, survival T/C", "experiment": "NCI In Vivo Anticancer Drug Screen. Data for tumor model L1210 Leukemia (intraperitoneal) in CD2F1 (CDF1) mice", "details": "higher = longer survival", "how_it_was_run": "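Implant tumor; dose compound or vehicle; measure endpoint in both groups; report treated divided by control.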", "key": {"[1]": {"details": "endpoint: mean survival time, dose: 100.0 mg/kg/injection, schedule: Q01DX009 (ip), vehicle: saline with Tween-80"}, "[2]": {"details": "endpoint: mean survival time, dose: 100.0 mg/kg/injection, schedule: Q04DX003 (ip), vehicle: saline"}, "[3]": {"details": "endpoint: mean survival time, dose: 200.0 mg/kg/injection, schedule: Q01DX009 (ip), vehicle: saline with Tween-80"}, "[4]": {"details": "endpoint: mean survival time, dose: 25.0 mg/kg/injection, schedule: Q01DX009 (ip), vehicle: Klucel (hydroxypropylcellulose) (HPC)"}}, "note": "Several values for one entry are separate records, joined by “and”; a condition that tells them apart may be missing. Identical values can stand only once. Toxic doses and inconclusive results are not listed.", "data": [{"smiles": "C=CCSc1ncnc2c1c(Br)cn2C1OC(CO)C(O)C1O", "note": "(stereo not drawn)", "values": [{"measurement": "T/C", "setting": "endpoint: mean survival time, dose: 75.0 mg/kg/injection, schedule: Q01DX001 (ip), vehicle: saline", "result": "101 % of control"}, {"measurement": "T/C", "setting": "endpoint: mean survival time, dose: 150.0 mg/kg/injection, schedule: Q01DX001 (ip), vehicle: saline", "result": "107 % of control"}, {"measurement": "T/C", "setting": "endpoint: mean survival time, dose: 300.0 mg/kg/injection, schedule: Q01DX001 (ip), vehicle: saline", "result": "106 % of control"}]}, {"smiles": "O=C(OCC1OC(n2cc(C(F)(F)F)c(=O)[nH]c2=O)CC1OC(=O)c1ccc([N+](=O)[O-])cc1)c1ccc([N+](=O)[O-])cc1", "note": "(stereo not drawn)", "values": [{"measurement": "T/C", "setting": "endpoint: median survival time, dose: 25.0 mg/kg/injection, schedule: Q01DX009 (ip), vehicle: Klucel (hydroxypropylcellulose) (HPC)", "result": "116 % of control"}, {"measurement": "T/C", "setting": "endpoint: median survival time, dose: 50.0 mg/kg/injection, schedule: Q01DX009 (ip), vehicle: Klucel (hydroxypropylcellulose) (HPC)", "result": "113 % of control"}]}, {"smiles": "N=c1ccn2c(n1)OC1C(OC(=O)C34CC5CC(CC(C5)C3)C4)C(COC(=O)C34CC5CC(CC(C5)C3)C4)OC12", "note": "(stereo not drawn)", "values": [{"measurement": "T/C", "setting": "endpoint: mean survival time, dose: 12.5 mg/kg/injection, schedule: Q01DX005 (ip), vehicle: distilled water + Tween-80", "result": "104 % of control"}, {"measurement": "T/C", "setting": "endpoint: mean survival time, dose: 25.0 mg/kg/injection, schedule: Q01DX005 (ip), vehicle: distilled water + Tween-80", "result": "107 % of control"}, {"measurement": "T/C", "setting": "endpoint: mean survival time, dose: 50.0 mg/kg/injection, schedule: Q01DX005 (ip), vehicle: distilled water + Tween-80", "result": "121 % of control"}]}, {"smiles": "CC(C)(CCC(=O)O)C(=O)O", "values": [{"measurement": "T/C", "setting": "endpoint: mean survival time, dose: 50.0 mg/kg/injection, schedule: Q01DX009 (ip), vehicle: saline with Tween-80", "result": "100 % of control"}, {"measurement": "T/C", "setting": "[1]", "result": "98 % of control"}, {"measurement": "T/C", "setting": "[2]", "result": "102 % of control"}, {"measurement": "T/C", "setting": "[3]", "result": "98 % of control"}, {"measurement": "T/C", "setting": "endpoint: mean survival time, dose: 200.0 mg/kg/injection, schedule: Q04DX003 (ip), vehicle: saline", "result": "96 % of control"}]}, {"smiles": "O=C1CC2(C(=O)N1CN1CCCCC1)c1ccccc1-c1ccccc12", "values": [{"measurement": "T/C", "setting": "endpoint: mean survival time, dose: 12.5 mg/kg/injection, schedule: Q01DX009 (ip), vehicle: Klucel (hydroxypropylcellulose) (HPC)", "result": "94 % of control and 102 % of control"}, {"measurement": "T/C", "setting": "[4]", "result": "91 % of control and 105 % of control"}, {"measurement": "T/C", "setting": "endpoint: mean survival time, dose: 50.0 mg/kg/injection, schedule: Q01DX009 (ip), vehicle: Klucel (hydroxypropylcellulose) (HPC)", "result": "98 % of control and 100 % of control"}, {"measurement": "T/C", "setting": "endpoint: mean survival time, dose: 100.0 mg/kg/injection, schedule: Q01DX009 (ip), vehicle: Klucel (hydroxypropylcellulose) (HPC)", "result": "94 % of control and 102 % of control"}, {"measurement": "T/C", "setting": "endpoint: mean survival time, dose: 200.0 mg/kg/injection, schedule: Q01DX009 (ip), vehicle: Klucel (hydroxypropylcellulose) (HPC)", "result": "100 % of control"}, {"measurement": "T/C", "setting": "endpoint: mean survival time, dose: 400.0 mg/kg/injection, schedule: Q01DX009 (ip), vehicle: Klucel (hydroxypropylcellulose) (HPC)", "result": "158 % of control"}]}, {"smiles": "Nc1ncnc2nc(C(O)C(O)C(O)CO)[nH]c12", "note": "(stereo not drawn)", "values": [{"measurement": "T/C", "setting": "endpoint: median survival time, dose: 12.5 mg/kg/injection, schedule: Q01DX005 (ip), vehicle: distilled water + Tween-80", "result": "102 % of control"}, {"measurement": "T/C", "setting": "endpoint: median survival time, dose: 25.0 mg/kg/injection, schedule: Q01DX005 (ip), vehicle: distilled water + Tween-80", "result": "96 % of control"}, {"measurement": "T/C", "setting": "endpoint: median survival time, dose: 50.0 mg/kg/injection, schedule: Q01DX005 (ip), vehicle: distilled water + Tween-80", "result": "98 % of control"}, {"measurement": "T/C", "setting": "endpoint: median survival time, dose: 100.0 mg/kg/injection, schedule: Q01DX005 (ip), vehicle: distilled water + Tween-80", "result": "98 % of control"}, {"measurement": "T/C", "setting": "endpoint: median survival time, dose: 200.0 mg/kg/injection, schedule: Q01DX005 (ip), vehicle: distilled water + Tween-80", "result": "106 % of control"}]}, {"smiles": "CNC(=O)c1ccc[n+](CC(=O)NCc2ccccc2)c1", "values": [{"measurement": "T/C", "setting": "[2]", "result": "107 % of control"}]}, {"smiles": "O=C(Nc1ccc(C2=NCCN2)cc1)c1ccc(C(=O)Nc2ccc(C3=NCCN3)cc2)c([N+](=O)[O-])c1", "values": [{"measurement": "T/C", "setting": "endpoint: mean survival time, dose: 5.0 mg/kg/injection, schedule: Q01DX007 (ip), vehicle: saline", "result": "124 % of control"}, {"measurement": "T/C", "setting": "endpoint: mean survival time, dose: 5.0 mg/kg/injection, schedule: Q03DX003 (ip), vehicle: saline", "result": "107 % of control"}, {"measurement": "T/C", "setting": "endpoint: mean survival time, dose: 5.0 mg/kg/injection, schedule: Q04DX003 (ip), vehicle: saline", "result": "112 % of control"}, {"measurement": "T/C", "setting": "endpoint: mean survival time, dose: 8.0 mg/kg/injection, schedule: Q01DX009 (ip), vehicle: saline", "result": "158 % of control"}, {"measurement": "T/C", "setting": "endpoint: mean survival time, dose: 10.0 mg/kg/injection, schedule: Q01DX007 (ip), vehicle: saline", "result": "155 % of control"}, {"measurement": "T/C", "setting": "endpoint: mean survival time, dose: 10.0 mg/kg/injection, schedule: Q01DX009 (ip), vehicle: saline", "result": "163 % of control"}, {"measurement": "T/C", "setting": "endpoint: mean survival time, dose: 10.0 mg/kg/injection, schedule: Q03DX003 (ip), vehicle: saline", "result": "113 % of control"}, {"measurement": "T/C", "setting": "endpoint: mean survival time, dose: 10.0 mg/kg/injection, schedule: Q04DX003 (ip), vehicle: saline", "result": "112 % of control"}, {"measurement": "T/C", "setting": "endpoint: mean survival time, dose: 16.0 mg/kg/injection, schedule: Q01DX009 (ip), vehicle: saline", "result": "271 % of control"}, {"measurement": "T/C", "setting": "endpoint: mean survival time, dose: 20.0 mg/kg/injection, schedule: Q01DX007 (ip), vehicle: saline", "result": "181 % of control"}, {"measurement": "T/C", "setting": "endpoint: mean survival time, dose: 20.0 mg/kg/injection, schedule: Q01DX009 (ip), vehicle: saline", "result": "225 % of control"}, {"measurement": "T/C", "setting": "endpoint: mean survival time, dose: 20.0 mg/kg/injection, schedule: Q04DX003 (ip), vehicle: saline", "result": "115 % of control"}]}, {"smiles": "CCOC(=O)CCC(NC(=O)c1ccc(CN(C)Cc2cnc3nc(N)nc(N)c3n2)cc1)C(=O)OCC", "note": "(stereo not drawn)", "values": [{"measurement": "T/C", "setting": "endpoint: mean survival time, dose: 1.0 mg/kg/injection, schedule: Q01DX009 (ip), vehicle: Klucel (hydroxypropylcellulose) (HPC)", "result": "100 % of control"}, {"measurement": "T/C", "setting": "endpoint: mean survival time, dose: 10.0 mg/kg/injection, schedule: Q01DX009 (ip), vehicle: Klucel (hydroxypropylcellulose) (HPC)", "result": "108 % of control"}, {"measurement": "T/C", "setting": "[4]", "result": "115 % of control"}]}, {"smiles": "C=C(C)c1ccc(C)c(C)c1", "values": [{"measurement": "T/C", "setting": "[1]", "result": "93 % of control"}, {"measurement": "T/C", "setting": "[3]", "result": "98 % of control"}, {"measurement": "T/C", "setting": "endpoint: mean survival time, dose: 400.0 mg/kg/injection, schedule: Q01DX009 (ip), vehicle: saline with Tween-80", "result": "114 % of control"}]}]}
